Measured values: patent US12466814B2, “Sterically shielded heptamethine cyanine dyes” (UNIVERSITY OF NOTRE DAME DU LAC, priority 2020, dated 2025)
Marks after values point to notes of the source that are not given here.

Experiments:
[1] = test system: integrin positive A549 cells; assay: Cell uptake by fluorescence microscopy; type: cell-based, human
Experimental: FIG. 19. […] The two targeted dyes contain a cyclic peptide cRGDfK sequence for targeting the overexpressed cell surface integrin receptors. The blocking experiments added 100 μM of free cRGDfK prior to the incubation with RGD probes. NIR heptamethine fluorescence is shown in green, and Hoechst nuclear stain is shown in blue. Scale bar=30 μm. (c) Quantification of intracellular mean fluorescence intensities as a measure of NIR dye internalization (6 micrographs per condition and 3 replicates). * indicates p<0.05, and ** p<0.01.
Cell Microscopy. For fluorescence microscopy, A549 cells were seeded and grown to 70% confluency on an 8-well chambered coverglass (Lab-Tek, Nunc, USA). […] For blocking, 100 μM of cRGDfK was added to the cells, 10 min prior to dye treatment and remained present during NIR dye incubation. After dye incubation, the cells were washed several times with PBS, fixed with 4% cold paraformaldehyde for 20 min at room temperature and washed again with PBS. […] Next, a triangle threshold was employed and used to calculate the average mean pixel intensity (MPI) where overall averages and SEM were calculated and plotted in GraphPad Prism. A total of 6 micrographs were evaluated per condition and each experiment was conducted in triplicate.

[2] = Quantum yield and fluorescence brightness relative to UL766; type: physicochemical; conditions: for Brightness (fluorescence brightness = ε × QY): PBS pH 7.4, error ±15%; for Quantum yield: pH 7.4 PBS, relative to UL766, error ±10%
Excerpt: The fluorescence spectrum of each solution was obtained with excitation at 730 nm, and the integrated area was used in the quantum yield calculation by the following equation:
[formula] where η is the refractive index of the solvent, I is the integrated fluorescence intensity, and A is the absorbance at a chosen wavelength. […]

[3] = Dye self-aggregation by absorption/excitation spectra; type: physicochemical; conditions: in water / aqueous media, absorption spectra
Excerpt: Self-aggregation of heptamethine cyanine dyes is readily indicated by conversion of monomer absorption bands into aggregate bands, in this case blue-shifted H-aggregates.

[4] = Absorption and emission spectral properties of dyes; type: physicochemical; conditions: for ε: monomer band
Experimental: General. Reagents and solvents were purchased from Sigma-Aldrich, VWR, Oakwood, Thermo Fisher and TCI and used without further purification unless stated otherwise. Anhydrous tetrahydrofuran was distilled with metal sodium and benzophenone. Column chromatography was performed using Biotage SNAP Ultra columns. ^1H, ^13C and ROESY NMR spectra were recorded on a Bruker 500 NMR spectrometer. Chemical shifts are presented in ppm and referenced by residual solvent peak. High-resolution mass spectrometry (HRMS) was performed using a time-of-flight (TOF) analyzer with electrospray ionization (ESI). Absorption spectra were recorded on an Evolution 201 UV/vis spectrometer with Thermo Insight software. Fluorescence spectra were collected on a Horiba Fluoromax-4 fluorometer with FluoroEssence software. Analyte solutions were prepared in HPLC grade water (Sigma-Aldrich), phosphate buffered saline (Thermo Fisher), fetal bovine serum (Sigma-Aldrich) or buffer B (575 mM NaCl, 37.5 mM NaH2PO4 and 0.75 mM EDTA in water, pH 7.5). All absorption and fluorescence spectra were collected using quartz cuvettes (1 mL, 1 cm path length; for emission and excitation spectra, slit width=3 nm).

[5] = Photostability, Xenon lamp irradiation; type: physicochemical
Experimental: FIG. 2. Two separate photostability studies. (a) Lamp irradiation: Four separate cuvettes, each containing 1 μM dye in PBS buffer, pH 7.4, were irradiated by a 150 W Xenon lamp with a 620 nm long-pass filter. The plot of normalized dye absorbance versus time was fit to a one-phase exponential decay. […] The length scale bar on each NIR fluorescence image is 1 cm.
Photostability Measurements. Lamp Irradiation: A solution of dye (1 μM) in PBS buffer, pH 7.4, was placed in a 1×1×4 cm^3 cuvette that was exposed to air and irradiated at a distance of 3 cm by a 150 W Xenon lamp with a 620 nm long-pass filter. An absorbance spectrum was recorded every 10 min. The normalized maximum absorbance of dye was plotted against time and fitted to a non-linear regression, one-phase exponential decay. […] A 1.5 mL vial containing the solution was irradiated at a distance of 3 cm by a 150 W Xenon lamp with a 620 nm long-pass filter.

[6] = Mouse biodistribution in normal mice; type: in vivo, SKH1 hairless mice; conditions: 10 nmol
Excerpt: FIG. 20. a) Representative whole-body NIR fluorescence images of living SKH1 hairless mice at 0, 1, and 2 hr after intravenous injection of either ICG or s775z (10 nmol). b) In vivo biodistribution of s775z and ICG in normal mice. The SKH1 hairless mice (N=4) received an intravenous injection of ICG or s775z (10 nmol) and were sacrificed after 2 hr. The mean pixel intensity (MPI) for each excised organ is relative to the MPI for thigh muscle from the same animal; error bars indicate ±SEM. * indicates p<0.05. Note: the y-axis is truncated.
Mouse Biodistribution. All animal experiments were conducted under protocols that were approved by the Notre Dame Institutional Animal Care and Use Committee. Female SKH1 hairless mice (N=4) were divided into two cohorts and received a retro-orbital injection of ICG or s775z (50 μL, 10 nmol). […] The mice were then injected with dye and imaged at 0, 1, and 2 hr. At 2 hr, the mice were anesthetized, sacrificed via cervical dislocation, and blood was collected from the heart. The lower cavity of the mice was then exposed and imaged. […] The images were pseduocolored “fire,” and an arbitrary maximum fluorescence value was chosen. […] The amount of dye was then quantified by manually drawing a region of interest around each organ. The MPI of each organ was measured and divided by the MPI for thigh muscle from the same animal.

[7] = test system: subcutaneous tumor (human A549 cells); assay: Mouse tumor imaging; type: in vivo, nude mice; conditions: A549 tumor mice, 10 nmol
Experimental: […]. The fluorescence mean pixel intensity (MPI) of two regions of interest (equal sizes) on the fluorescent images (tumor or background site on the opposite flank), at different post-injection time points, were measured using ImageJ2 software and used to calculate values for Tumor MPI, and Tumor-to-Background Ratio. * indicates p<0.05, ** p<0.01, and *** p<0.001.
Mouse Tumor Imaging. All animal experiments were conducted under protocols that were approved by the Notre Dame Institutional Animal Care and Use Committee. Female Foxn1 nude mice (N=8) were inoculated with A549 cells (1×10^6) in Corning Matrigel matrix on the right rear flank. […]. The mice were then injected with dye and imaged at 0, 0.5, 1, 2, and 3 hr. At 3 hr, the mice were anesthetized and sacrificed via cervical dislocation, and blood was collected from the heart. To simulate a surgery, the mice were imaged prior to surgery, the fluorescent tumor was fully removed, and the mice were imaged again. […] For image processing, the whole body and tumor images were pseudocolored “fire,” and an arbitrary maximum fluorescence value was chosen. Biodistribution analysis was performed by importing NIR fluorescence images of the excised organs from each mouse into ImageJ2 and the amount of dye in each organ was quantified by manually drawing a region of interest around each organ and determining the fluorescence MPI. […]

Structure (SMILES)	Cell uptake with blocking ([1]; A549 cells pre-incubated with excess (100 μM) cRGDfK)	Cell uptake ([1]; A549 cells, 10 μM dye, 1 hr, 37° C.)	Brightness (fluorescence brightness = ε × QY) [2]	Quantum yield [2]	Aggregation state [3]	SS (Stokes shift) ([4]; PBS pH 7.4) [nm]	λabs max, aggregate (a) band ([4]; PBS pH 7.4, room temperature)	λem max ([4]; PBS pH 7.4, room temperature) [nm]	λabs max ([4]; PBS pH 7.4, room temperature, monomer (m) band where an aggregate band is also listed)	ε ([4]; PBS pH 7.4, room temperature)	half-life at 1 μM ([5]; PBS buffer in a cuvette exposed to air, pH 7.4 PBS, 150 W Xenon lamp irradiation, 620 nm long-pass filter, 23° C., 1 μM dye, read-out: t1/2, half-life of first-order decay (converted)) [min]	k, rate constant of first-order decay ([5]; pH 7.4 PBS, 150 W Xenon lamp irradiation, 620 nm long-pass filter, 23° C., 1 μM dye) [s⁻¹]	Order of photostabilities ([5]; separate cuvettes, dye in PBS, Xenon lamp >620 nm)	Clearance from bloodstream ([6]; retro-orbital injection, live imaging over 2 hr)	Clearance pathway / biodistribution ([6]; sacrificed after 2 hours)	Clearance and background retention [7]
CC1(C)C(/C=C/C2=C(c3ccc(C(=O)NCCCC[C@@H]4NC(=O)[C@@H](Cc5ccccc5)NC(=O)[C@H](CC(=O)O)NC(=O)CNC(=O)[C@H](CCCNC(=N)N)NC4=O)cc3)C(=C/C=C3/N(CCC[N+](C)(C)C)c4ccc(S(=O)(=O)O)cc4C3(C)C)/CCC2)=[N+](CCC[N+](C)(C)C)c2ccc(S(=O)(=O)O)cc21 [Dye 756z-RGD]	successfully blocked	much higher cell uptake	16,000	10.7^[b] %	concentration-dependent mixture of fluorescent monomer and non-fluorescent H-aggregate	16	682 (a)/ nm	773	757 (m) nm	147,000 M^−1cm^−1						
CC1(C)C(/C=C/C=C/C=C/C=C2\N(CCCCS(=O)(=O)O)c3ccc4ccccc4c3C2(C)C)=[N+](CCCCS(=O)(=O)[O-])c2ccc3ccccc3c21 [ICG, Indocyanine Green]			1,600	2.3^[b] %						71,000 M^−1cm^−1	13.3	0.00087	s775z>756z>UL766>ICG	quickly cleared from the mouse bloodstream	accumulated in the intestines and liver	
COCCOCCOCCOCc1cn(Cc2cc(C(=O)NCCCC[C@@H]3NC(=O)[C@@H](Cc4ccccc4)NC(=O)[C@H](CC(=O)O)NC(=O)CNC(=O)[C@H](CCCNC(=N)N)NC3=O)cc(Cn3cc(COCCOCCOCCOC)nn3)c2C(=C\C=C\C2=[N+](CCC[N+](C)(C)C)c3ccc(S(=O)(=O)O)cc3C2(C)C)/C=C/C=C2/N(CCC[N+](C)(C)C)c3ccc(S(=O)(=O)O)cc3C2(C)C)nn1 [s775z-RGD]																rapid, near-exclusive renal clearance from the bloodstream
